As usually defined, the IC50 is the midpoint of a concentration-inhibition curve. The low end stands for greater potency in that assay, the high end for weaker potency in that assay.

Where “and” joins values, the source holds several entries; their conditions need not be identical. Equal values may be shown once.

The assay concerns the target T1, Amyloid-beta A4 precursor protein-binding family A member 1 (Rattus norvegicus, UniProt O35430).
T1 sequence (O35430 whole entry): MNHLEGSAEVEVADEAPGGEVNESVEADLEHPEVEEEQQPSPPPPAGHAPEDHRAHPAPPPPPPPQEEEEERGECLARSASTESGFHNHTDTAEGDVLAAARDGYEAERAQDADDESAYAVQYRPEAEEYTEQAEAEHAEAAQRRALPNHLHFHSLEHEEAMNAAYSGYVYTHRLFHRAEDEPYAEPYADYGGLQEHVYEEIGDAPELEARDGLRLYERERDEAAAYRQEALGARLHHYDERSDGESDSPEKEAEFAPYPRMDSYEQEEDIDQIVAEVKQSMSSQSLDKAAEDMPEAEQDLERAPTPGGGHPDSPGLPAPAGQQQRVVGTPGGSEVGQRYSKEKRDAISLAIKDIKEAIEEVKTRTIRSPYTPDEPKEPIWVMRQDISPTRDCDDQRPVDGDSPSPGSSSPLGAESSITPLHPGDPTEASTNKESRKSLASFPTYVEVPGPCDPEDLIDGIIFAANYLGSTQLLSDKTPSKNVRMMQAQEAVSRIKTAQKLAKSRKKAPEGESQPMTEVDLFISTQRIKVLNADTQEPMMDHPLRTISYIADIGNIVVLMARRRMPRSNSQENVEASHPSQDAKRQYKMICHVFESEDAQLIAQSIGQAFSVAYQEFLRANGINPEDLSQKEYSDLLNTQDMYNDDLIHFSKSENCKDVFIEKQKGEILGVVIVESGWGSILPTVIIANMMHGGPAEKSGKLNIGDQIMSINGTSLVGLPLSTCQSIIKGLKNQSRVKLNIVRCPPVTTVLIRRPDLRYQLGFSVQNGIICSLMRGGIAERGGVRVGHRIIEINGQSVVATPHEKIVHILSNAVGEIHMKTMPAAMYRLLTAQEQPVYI
Description: disruptors of Mint-PDZ/N-type channel peptide interaction – biochemical, HTRF, set 2, SAR follow-up (AID 434980). Background: TR-FRET usually uses a lanthanide donor and a delayed reading to cut background.
For `CC12C=CC(C)(O1)c1c2c(O)n(-c2ccc3c(c2)OCO3)c1O`, the IC50 was more than 56.8 µM. In the case of `CC(=O)Oc1cccc(-n2c(O)c3c(c2O)C2(C)C=CC3(C)O2)c1` it was 9.86 µM and 9.63 µM. `CC12C=CC(C)(O1)c1c2c(O)n(-c2ccc(Cl)cc2)c1O` yielded an IC50 of more than 56.8 µM. In the case of `Cc1ccc(-n2c(O)c3c(c2O)C2(C)C=CC3(C)O2)cc1` it was more than 56.8 µM; in that of `CC12C=CC(C)(O1)c1c2c(O)n(-c2ccc(F)cc2)c1O` [2-(4-fluorophenyl)-4,7-dimethyl-3a,7a-dihydro-octahydro-1H-4,7-epoxyisoindole-1,3-dione], 8.89 µM. Molecule `Cc1cccc(-n2c(O)c3c(c2O)C2(C)C=CC3(C)O2)c1` [4,7-dimethyl-2-(3-methylphenyl)-3a,7a-dihydro-octahydro-1H-4,7-epoxyisoindole-1,3-dione] gave an IC50 of 8.93 µM.

Regarding `CC12C=CC(C)(O1)c1c2c(O)n(-c2ccccc2)c1O` [4,7-dimethyl-2-phenyl-3a,7a-dihydro-octahydro-1H-4,7-epoxyisoindole-1,3-dione], the IC50 amounted to 10.5 µM. To `CC(=O)Oc1ccc(-n2c(O)c3c(c2O)C2(C)C=CC3(C)O2)cc1` [MLS000107813] belongs 6.39 µM; to `COC(=O)c1cc(-n2c(O)c3c(c2O)C2(C)C=CC3(C)O2)ccc1Cl` [MLS000107828], more than 56.8 µM; to `CCCc1ccc(CC2=C(C(=O)OCC)C(=O)c3ccccc3C2=O)cc1` [MLS000571357], 5.7 µM.

As to `CC(=O)Oc1ccc(-n2c(O)c3c(c2O)C2C=CC3O2)cc1` [[4-(1,3-dioxo-3a,4,7,7a-tetrahydro-octahydro-1H-4,7-epoxyisoindol-2-yl)phenyl] acetate], the IC50 was 18.8 µM.

The record behind these values is BindingDB's records for doi:10.7270/Q2668BMS (Burnham Center For Chemical Genomics, 2010).
